Measured values as given in US12037306B2, “Methods of treating neurofibromatosis type 1 with N-((R))-2,3-dihydroxypropoxy)-3,4-difluoro-2-(2-fluoro-4-iodophenylamino)-benzamide” (Warner-Lambert Company LLC, priority 2021, dated 2024).

Assay: Form IV stability by XRPD comparison to a reference standard after storage
Assay type: physicochemical
Conditions: stored at 25° C. and 65% relative humidity
Protocol: In some aspects, the XRPD pattern is generated using a PANALYTICAL® X'Pert Pro diffractometer using Ni-filtered Cu Kα (45 kV/40 mA) radiation and a step size of 0.03° 2θ with a X'CELERATOR® Real Time Multi-Strip detector, configured (a) on the incidental beam side as follows: variable divergence slits (10 mm irradiated length), 0.04 rad Soller slits, fixed anti-scatter slit (0.50°), and 10 mm beam mask, and (b) on the diffracted beam side as follows: variable anti-scatter slit (10 mm observed length) and 0.04 rad Soller slit or a BRUKER® D8® ADVANCE™ system using Cu Kα (40 kV/40 mA) radiation and a step size of 0.03° 2θ with a LYNXEYE™ detector, configured (a) on the incidental beam side as follows: Göebel mirror, mirror exit slit (0.2 mm), 2.5° Soller slit, beam knife, and (b) on the diffracted beam side as follows: anti-scatter slit (8 mm) and 2.5° Soller slit, wherein samples are mounted flat on zero-background Si wafers. In some aspects, the DSC pattern is generated using a TA Instruments Q100 or Q2000 differential scanning calorimeter at a rate of temperature increase of about 15° C./min.
Stability of Form IV material was determined by comparing the XRPD spectrum of a batch to a reference standard XRPD spectrum. This analysis was performed at batch release, and the XRPD spectrum obtained corresponded to that of the reference standard of Form IV (FIG. 2). […]

- Changes in the XRPD spectrum over time (stability of Form IV) (XRPD at 68 months (FIG. 3A)): Undetectable changes
- Changes in the XRPD spectrum over time (stability of Form IV) (XRPD at 140 months (FIG. 3B)): Undetectable changes
SMILES: O=C(NOC[C@H](O)CO)c1ccc(F)c(F)c1Nc1ccc(I)cc1F [Form IV, N—((R)-2,3-dihydroxypropoxy)-3,4-difluoro-2-(2-fluoro-4-iodo-phenylamino)-benzamide]
